Experimental data reported in patent US20100168075A1, “Novel 2-Azetidinone Derivatives As Cholesterol Absorption Inhibitors For The Treatment Of Hyperlipidaemic Conditions” (ASTRAZENECA AB, priority 2005, published 2010).

How the values were obtained:
Caco-2 cells = test: Absorption in a Caco-2 cells model; format: in vitro ADME
Experimental: Absorption of the compounds of formula (I) was tested in a Caco-2 cells model (Gastroenterology 1989, 96, 736): […]

[1] = test system: ^14C-cholesterol absorption; test: In vivo testing of cholesterol absorption inhibitors (A); settings: Mus musculus, po; 0.2 μmol/kg, gavage, procedure A, C57BL/6 female mice
Experimental: In Vivo Testing of Cholesterol Absorption Inhibitors (A)
C57BL/6 female mice were maintained on regular chow diet and housed in individual cages to collect faeces. Mice were fasted for 3 hours and then gavaged with vehicle or compound. Half an hour later the mice were gavaged with radiolabelled cholesterol. Six hours after the ^14C-cholesterol gavage blood samples were taken via the tail and plasma prepared to determine how much cholesterol were absorbed. 24 hours after the gavage of ^14C-cholesterol the mice were bled and plasma were prepared for analysis. Faeces were collected for 24 hours to assess absorption efficiency.

SMILES	Caco value (Caco-2 cells) [×10⁻⁶ cm/s]	inhibition at 0.2 µmol/kg [1] [%]
CC(=O)[O-].C[N+](C)(C)CCNC(=O)[C@@H](CC1CCCCC1)NC(=O)CNC(=O)COc1ccc([C@@H]2[C@@H](SCC(O)c3ccc(F)cc3)C(=O)N2c2ccc(F)cc2)cc1 (stereo partly drawn) [Example 17, N-{[4-((2R,3R)-1-(4-fluorophenyl)-3-{[(2R or $)-2-(4-fluorophenyl)-2-hydroxyethyl]thio}-4-oxoazetidin-2-yl)phenoxy]acetyl}glycyl-3-cyclohexyl-N-[2-(trimethylammonio)ethyl]-D-alaninamide acetate]	0.61	
N[C@H](CCCCNC(=O)CNC(=O)COc1ccc([C@@H]2[C@@H](SCC(O)c3ccc(F)cc3)C(=O)N2c2ccc(F)cc2)cc1)C(=O)O (stereo partly drawn) [Example 10, N^6-(N-{[4-((2R,3R)-1-(4-fluorophenyl)-3-{[2-(4-fluorophenyl)-2-hydroxyethyl]thio}-4-oxoazetidin-2-yl)phenoxy]acetyl}glycyl)-D-lysine]		38
